Values joined by “and” are separate entries in the source; they are usually repeats but may differ in a detail not shown here. Identical values can stand only once.
What was measured:
Type in all cases: cell-based
[1] = test system: SK-hep-1 liver cancer cell line; test: SRB analysis 3; conditions: 48 hours
Description: (§1) Through SRB analysis (n=3), the effect of triple combination treatment of a CAC inhibitor (KN510: omeprazole), ACAA inhibitor (KN713: trimetazidine) and other anticancer drug on cell growth in the cancer cells was analyzed. (see Table 11).
(§2) The SRB assay was performed as follows: each cell line (100 μl) was seeded into 96-well microtiter plates at densities ranging from 5,000 to 40,000 cells/well depending on the doubling time of each cell line. After 24 hours, drug (100 μl per well) was added to each well and the culture was incubated at 37° C. for 48 hours. Cells were then fixed in 50% TCA (50 μl per well) and plates were incubated at 4° C. for a minimum of 1 hour or a maximum of 3 hours. After that, the liquid was removed from the plate, then rinsed 5 times with water and dried for approximately 12-24 hours at room temperature (RT). After the fixed cells were stained with 0.4% SRB (100 μl per well) for 10 minutes at room temperature, the plates were washed 3 times with 1% glacial acetic acid and dried at room temperature for about 12-24 hours. SRB staining was dissolved in 10 mM Trizma base and absorbance was read at 515 nm. The effect of the drug was expressed as GI50 (50% growth inhibition), TGI (total growth inhibition) or LC50 (lethal concentration). GI50 is the maximum concentration at the moment of 50% inhibition of cell proliferation and IC50 is the concentration of the drug that inhibits the enzyme activity in vitro by 50% in this study.

A375 melanoma cell line = test: SRB analysis 3; conditions: 48 hours
Description: as §1, §2

[2] = test system: A549 non-small cell lung cancer (NSCLC) cell line; test: SRB analysis 3; conditions: 48 hours
Description: as §1, §2

[3] = test system: MDA-MB-231 breast cancer cell line; test: SRB analysis 3; conditions: 48 hours
Description: as §1, §2

[4] = test system: Caki-1 renal cancer cell line; test: SRB analysis 3; conditions: 48 hours
Description: as §1, §2

[5] = test system: AGS gastric cancer cell line; test: SRB analysis 3; conditions: 48 hours
Description: as §1, §2

[6] = test system: MIA PaCa-2 pancreatic cancer (PDAC) cell line; test: SRB analysis 3; conditions: 48 hours
Description: as §1, §2

[7] = test system: DU145 prostate cancer cell line; test: SRB analysis 3; conditions: 48 hours
Description: as §1, §2

[8] = test system: ACHN renal cancer cell line; test: SRB analysis 3; conditions: 48 hours
Description: as §1, §2

[9] = test system: COLO-205 colon cancer cell line; test: SRB analysis 3; conditions: 48 hours
Description: as §1, §2

[10] = test system: MKN45 gastric cancer cell line; test: SRB analysis 3; conditions: MKN45, 48 hours
Description: as §1, §2

[11] = test system: HCT-116 colon cancer cell line; test: SRB analysis 3; conditions: 48 hours
Description: as §1, §2

[12] = test system: PC-3 prostate cancer cell line; test: SRB analysis 3; conditions: 48 hours
Description: as §1, §2

[13] = test system: MCF7 breast cancer cell line; test: SRB analysis 3; conditions: 48 hours
Description: as §1, §2

[14] = test system: H1975 non-small cell lung cancer (NSCLC) cell line; test: SRB analysis 3; conditions: 48 hours
Description: as §1, §2

[15] = test system: AsPC-1 pancreatic cancer (PDAC) cell line; test: SRB analysis 3; conditions: 48 hours
Description: as §1, §2

[16] = test system: OVCAR-8 ovarian cancer cell line; test: SRB analysis 3; conditions: 48 hours
Description: as §1, §2

[17] = test system: SK-OV-3 ovarian cancer cell line; test: SRB analysis 3; conditions: 48 hours
Description: as §1, §2

[18] = test system: Huh-7 liver cancer cell line; test: SRB analysis 3; conditions: 48 hours
Description: as §1, §2

[19] = test system: UACC62 melanoma cell line; test: SRB analysis 3; conditions: 48 hours
Description: as §1, §2

[20] = test system: Panc-1 pancreatic cancer cells; test: SRB analysis 2; conditions: 48 hours
[21] = test system: SW1990 pancreatic cancer cells; test: SRB analysis 2; conditions: 48 hours

COc1ccc2[nH]c([S+]([O-])Cc3ncc(C)c(OC)c3C)nc2c1 (centres unmarked) [KN510, omeprazole]
cell growth (Control = 100) ([1]; KN510 100 μM): 60.38
cell growth (Control = 100) (A375 melanoma cell line; KN510 100 μM): 79.18
cell growth (Control = 100) ([2]; KN510 100 μM): 55.4 and 30.1
cell growth (Control = 100) ([3]; KN510 100 μM): 86.99
cell growth (Control = 100) ([4]; KN510 100 μM): 102.1283
cell growth (Control = 100) ([5]; KN510 100 μM): 65.05
cell growth (Control = 100) ([6]; KN510 100 μM): 65.94
cell growth (Control = 100) ([7]; KN510 100 μM): 76.71
cell growth (Control = 100) ([8]; KN510 100 μM): 61.17
cell growth (Control = 100) ([9]; KN510 100 μM): 78.03
cell growth (Control = 100) ([10]; KN510 100 μM): 62.39
cell growth (Control = 100) ([11]; KN510 100 μM): 79.65
cell growth (Control = 100) ([12]; KN510 100 μM): 59.63
cell growth (Control = 100) ([13]; KN510 100 μM): 70.3
cell growth (Control = 100) ([14]; KN510 100 μM): 84.1319
cell growth (Control = 100) ([15]; KN510 100 μM): 65.83
cell growth (Control = 100) ([16]; KN510 100 μM): 68.75
cell growth (Control = 100) ([17]; KN510 100 μM): 85.06
cell growth (Control = 100) ([18]; KN510 100 μM): 77.73
cell growth (Control = 100) ([19]; KN510 100 μM): 50.83
degree of cell growth based on the control (100%) ([20]; KN510 100 μM): 63.06%
degree of cell growth based on the control (100%) ([20]; KN510 200 μM): 19.45%
degree of cell growth based on the control (100%) ([21]; KN510 100 μM): 90.16%
degree of cell growth based on the control (100%) ([21]; KN510 200 μM): 63.83%

COc1ccc(CN2CCNCC2)c(OC)c1OC [KN713, trimetazidine]
cell growth (Control = 100) ([1]; KN713 2.5 mM): 157.7818
cell growth (Control = 100) (A375 melanoma cell line; KN713 2.5 mM): 70.33
cell growth (Control = 100) ([2]; KN713 2.5 mM): 68.8 and 79.2
cell growth (Control = 100) ([3]; KN713 2.5 mM): 74.5469
cell growth (Control = 100) ([4]; KN713 2.5 mM): 47.58
cell growth (Control = 100) ([5]; KN713 2.5 mM): 60.34
cell growth (Control = 100) ([6]; KN713 2.5 mM): 39.45
cell growth (Control = 100) ([7]; KN713 2.5 mM): 55.68
cell growth (Control = 100) ([8]; KN713 2.5 mM): 65.67
cell growth (Control = 100) ([9]; KN713 2.5 mM): 31.62
cell growth (Control = 100) ([10]; KN713 2.5 mM): 72.85
cell growth (Control = 100) ([11]; KN713 2.5 mM): 36.64
cell growth (Control = 100) ([12]; KN713 2.5 mM): 45.06
cell growth (Control = 100) ([13]; KN713 2.5 mM): 60.36
cell growth (Control = 100) ([14]; KN713 2.5 mM): 62.58
cell growth (Control = 100) ([15]; KN713 2.5 mM): 58.71
cell growth (Control = 100) ([16]; KN713 2.5 mM): 72.86
cell growth (Control = 100) ([17]; KN713 2.5 mM): 83.37
cell growth (Control = 100) ([18]; KN713 2.5 mM): 52.09
cell growth (Control = 100) ([19]; KN713 2.5 mM): 54.65

Reference: patent publication US12728119B2, “Pharmaceutical composition for preventing or treating cancer comprising 3-ketoacyl CoA thiolase inhibitor and carnitine acylcarnitine carrier inhibitor” (NATIONAL CANCER CENTER, priority 2020, dated 2026)
